Source: PMC12102759 (Protein Science : A Publication of the Protein Society, 2025)

Tested on: G3BP1 NFT2
Assay type: binding, human
Conditions: library DMS-CoV, bait G3BP1 NFT2, prey N, listed as aa = residue placed at this position, column sums to 1

Sequence: APRITFGGPSDSTGSN T13S (APRITFGGPSDSSGSN)
- DMS PSSM value, T (position 13) (peptide APRITFGGPSDSTGSN): 9.878e-5

Sequence: APRITFGGPSDSTGSN G14N (APRITFGGPSDSTNSN)
- DMS PSSM value, G (position 14) (peptide APRITFGGPSDSTGSN): 0.000305

Sequence: APRITFGGPSDSTGSN P9R (APRITFGGRSDSTGSN)
- DMS PSSM value, P (position 9) (peptide APRITFGGPSDSTGSN): 0

Sequence: RNAPRITFGGPSDSTG D13E (RNAPRITFGGPSESTG)
- DMS PSSM value, D (position 13) (peptide RNAPRITFGGPSDSTG): 0

Sequence: APRITFGGPSDSTGSN S10H (APRITFGGPHDSTGSN)
- DMS PSSM value, S (position 10) (peptide APRITFGGPSDSTGSN): 0

Sequence: RNAPRITFGGPSDSTG T15Q (RNAPRITFGGPSDSQG)
- DMS PSSM value, T (position 15) (peptide RNAPRITFGGPSDSTG): 0

Sequence: RNAPRITFGGPSDSTG F8S (RNAPRITSGGPSDSTG)
- DMS PSSM value, F (position 8) (peptide RNAPRITFGGPSDSTG): 0

Sequence: APRITFGGPSDSTGSN S10V (APRITFGGPVDSTGSN)
- DMS PSSM value, S (position 10) (peptide APRITFGGPSDSTGSN): 0.01109

Sequence: RNAPRITFGGPSDSTG T15G (RNAPRITFGGPSDSGG)
- DMS PSSM value, T (position 15) (peptide RNAPRITFGGPSDSTG): 0

Sequence: APRITFGGPSDSTGSN S12F (APRITFGGPSDFTGSN)
- DMS PSSM value, S (position 12) (peptide APRITFGGPSDSTGSN): 0.0072

Sequence: APRITFGGPSDSTGSN T5D (APRIDFGGPSDSTGSN)
- DMS PSSM value, T (position 5) (peptide APRITFGGPSDSTGSN): 0

Sequence: RNAPRITFGGPSDSTG S14N (RNAPRITFGGPSDNTG)
- DMS PSSM value, S (position 14) (peptide RNAPRITFGGPSDSTG): 0.6905

Sequence: APRITFGGPSDSTGSN A1F (FPRITFGGPSDSTGSN)
- DMS PSSM value, A (position 1) (peptide APRITFGGPSDSTGSN): 0.0004523

Sequence: RNAPRITFGGPSDSTG F8N (RNAPRITNGGPSDSTG)
- DMS PSSM value, F (position 8) (peptide RNAPRITFGGPSDSTG): 0

Sequence: APRITFGGPSDSTGSN G14L (APRITFGGPSDSTLSN)
- DMS PSSM value, G (position 14) (peptide APRITFGGPSDSTGSN): 0.0229

Sequence: APRITFGGPSDSTGSN G14R (APRITFGGPSDSTRSN)
- DMS PSSM value, G (position 14) (peptide APRITFGGPSDSTGSN): 0.002725

Sequence: RNAPRITFGGPSDSTG G9R (RNAPRITFRGPSDSTG)
- DMS PSSM value, G (position 9) (peptide RNAPRITFGGPSDSTG): 0

Sequence: RNAPRITFGGPSDSTG G10S (RNAPRITFGSPSDSTG)
- DMS PSSM value, G (position 10) (peptide RNAPRITFGGPSDSTG): 0

Sequence: RNAPRITFGGPSDSTG S14K (RNAPRITFGGPSDKTG)
- DMS PSSM value, S (position 14) (peptide RNAPRITFGGPSDSTG): 0

Sequence: RNAPRITFGGPSDSTG D13A (RNAPRITFGGPSASTG)
- DMS PSSM value, D (position 13) (peptide RNAPRITFGGPSDSTG): 0

Sequence: RNAPRITFGGPSDSTG T15Y (RNAPRITFGGPSDSYG)
- DMS PSSM value, T (position 15) (peptide RNAPRITFGGPSDSTG): 0

Sequence: RNAPRITFGGPSDSTG G9D (RNAPRITFDGPSDSTG)
- DMS PSSM value, G (position 9) (peptide RNAPRITFGGPSDSTG): 1

Sequence: APRITFGGPSDSTGSN I4D (APRDTFGGPSDSTGSN)
- DMS PSSM value, I (position 4) (peptide APRITFGGPSDSTGSN): 0

Sequence: APRITFGGPSDSTGSN F6K (APRITKGGPSDSTGSN)
- DMS PSSM value, F (position 6) (peptide APRITFGGPSDSTGSN): 0

Sequence: APRITFGGPSDSTGSN P2W (AWRITFGGPSDSTGSN)
- DMS PSSM value, P (position 2) (peptide APRITFGGPSDSTGSN): 0

Sequence: APRITFGGPSDSTGSN G7E (APRITFEGPSDSTGSN)
- DMS PSSM value, G (position 7) (peptide APRITFGGPSDSTGSN): 0.08457

Sequence: APRITFGGPSDSTGSN F6Y (APRITYGGPSDSTGSN)
- DMS PSSM value, F (position 6) (peptide APRITFGGPSDSTGSN): 0.004533

Sequence: RNAPRITFGGPSDSTG A3M (RNMPRITFGGPSDSTG)
- DMS PSSM value, A (position 3) (peptide RNAPRITFGGPSDSTG): 0

Sequence: RNAPRITFGGPSDSTG G10L (RNAPRITFGLPSDSTG)
- DMS PSSM value, G (position 10) (peptide RNAPRITFGGPSDSTG): 0

Sequence: APRITFGGPSDSTGSN I4G (APRGTFGGPSDSTGSN)
- DMS PSSM value, I (position 4) (peptide APRITFGGPSDSTGSN): 0

Sequence: APRITFGGPSDSTGSN I4A (APRATFGGPSDSTGSN)
- DMS PSSM value, I (position 4) (peptide APRITFGGPSDSTGSN): 0

Sequence: APRITFGGPSDSTGSN G7A (APRITFAGPSDSTGSN)
- DMS PSSM value, G (position 7) (peptide APRITFGGPSDSTGSN): 0

Sequence: RNAPRITFGGPSDSTG G9Q (RNAPRITFQGPSDSTG)
- DMS PSSM value, G (position 9) (peptide RNAPRITFGGPSDSTG): 0

Sequence: APRITFGGPSDSTGSN S12P (APRITFGGPSDPTGSN)
- DMS PSSM value, S (position 12) (peptide APRITFGGPSDSTGSN): 0

Sequence: APRITFGGPSDSTGSN P9T (APRITFGGTSDSTGSN)
- DMS PSSM value, P (position 9) (peptide APRITFGGPSDSTGSN): 0.01557

Sequence: RNAPRITFGGPSDSTG P4L (RNALRITFGGPSDSTG)
- DMS PSSM value, P (position 4) (peptide RNAPRITFGGPSDSTG): 0

Sequence: APRITFGGPSDSTGSN
- DMS PSSM value, A (position 1) (peptide APRITFGGPSDSTGSN): 0.1536
- DMS PSSM value, D (position 11) (peptide APRITFGGPSDSTGSN): 0.2538
- DMS PSSM value, F (position 6) (peptide APRITFGGPSDSTGSN): 0.991
- DMS PSSM value, G (position 7) (peptide APRITFGGPSDSTGSN): 0.9101
- DMS PSSM value, G (position 8) (peptide APRITFGGPSDSTGSN): 0.05897
- DMS PSSM value, G (position 14) (peptide APRITFGGPSDSTGSN): 0.009135
- DMS PSSM value, I (position 4) (peptide APRITFGGPSDSTGSN): 0.9676
- DMS PSSM value, P (position 2) (peptide APRITFGGPSDSTGSN): 0.199
- DMS PSSM value, P (position 9) (peptide APRITFGGPSDSTGSN): 0.679
- DMS PSSM value, R (position 3) (peptide APRITFGGPSDSTGSN): 0.004269
- DMS PSSM value, S (position 10) (peptide APRITFGGPSDSTGSN): 0.07098
- DMS PSSM value, S (position 12) (peptide APRITFGGPSDSTGSN): 0.1222
- DMS PSSM value, S (position 15) (peptide APRITFGGPSDSTGSN): 0.03905
- DMS PSSM value, T (position 5) (peptide APRITFGGPSDSTGSN): 0.4961
- DMS PSSM value, T (position 13) (peptide APRITFGGPSDSTGSN): 0.03355

Sequence: RNAPRITFGGPSDSTG N2L (RLAPRITFGGPSDSTG)
- DMS PSSM value, N (position 2) (peptide RNAPRITFGGPSDSTG): 0

Sequence: APRITFGGPSDSTGSN S10Y (APRITFGGPYDSTGSN)
- DMS PSSM value, S (position 10) (peptide APRITFGGPSDSTGSN): 0.2277

Sequence: APRITFGGPSDSTGSN T13A (APRITFGGPSDSAGSN)
- DMS PSSM value, T (position 13) (peptide APRITFGGPSDSTGSN): 0.02642

Sequence: RNAPRITFGGPSDSTG G16A (RNAPRITFGGPSDSTA)
- DMS PSSM value, G (position 16) (peptide RNAPRITFGGPSDSTG): 0

Sequence: RNAPRITFGGPSDSTG A3W (RNWPRITFGGPSDSTG)
- DMS PSSM value, A (position 3) (peptide RNAPRITFGGPSDSTG): 0

Sequence: RNAPRITFGGPSDSTG N2P (RPAPRITFGGPSDSTG)
- DMS PSSM value, N (position 2) (peptide RNAPRITFGGPSDSTG): 0

Sequence: RNAPRITFGGPSDSTG D13K (RNAPRITFGGPSKSTG)
- DMS PSSM value, D (position 13) (peptide RNAPRITFGGPSDSTG): 0

Sequence: RNAPRITFGGPSDSTG S14V (RNAPRITFGGPSDVTG)
- DMS PSSM value, S (position 14) (peptide RNAPRITFGGPSDSTG): 0

Sequence: APRITFGGPSDSTGSN G8H (APRITFGHPSDSTGSN)
- DMS PSSM value, G (position 8) (peptide APRITFGGPSDSTGSN): 0

Sequence: APRITFGGPSDSTGSN P9Y (APRITFGGYSDSTGSN)
- DMS PSSM value, P (position 9) (peptide APRITFGGPSDSTGSN): 0.04934

Sequence: APRITFGGPSDSTGSN F6E (APRITEGGPSDSTGSN)
- DMS PSSM value, F (position 6) (peptide APRITFGGPSDSTGSN): 0

Sequence: APRITFGGPSDSTGSN S15G (APRITFGGPSDSTGGN)
- DMS PSSM value, S (position 15) (peptide APRITFGGPSDSTGSN): 0.002342

Sequence: RNAPRITFGGPSDSTG T7N (RNAPRINFGGPSDSTG)
- DMS PSSM value, T (position 7) (peptide RNAPRITFGGPSDSTG): 0

Sequence: RNAPRITFGGPSDSTG G10F (RNAPRITFGFPSDSTG)
- DMS PSSM value, G (position 10) (peptide RNAPRITFGGPSDSTG): 0

Sequence: APRITFGGPSDSTGSN A1N (NPRITFGGPSDSTGSN)
- DMS PSSM value, A (position 1) (peptide APRITFGGPSDSTGSN): 0.016

Sequence: APRITFGGPSDSTGSN D11Q (APRITFGGPSQSTGSN)
- DMS PSSM value, D (position 11) (peptide APRITFGGPSDSTGSN): 0.007406

Sequence: APRITFGGPSDSTGSN F6S (APRITSGGPSDSTGSN)
- DMS PSSM value, F (position 6) (peptide APRITFGGPSDSTGSN): 0

Sequence: RNAPRITFGGPSDSTG G9T (RNAPRITFTGPSDSTG)
- DMS PSSM value, G (position 9) (peptide RNAPRITFGGPSDSTG): 0

Sequence: APRITFGGPSDSTGSN F6M (APRITMGGPSDSTGSN)
- DMS PSSM value, F (position 6) (peptide APRITFGGPSDSTGSN): 0

Sequence: APRITFGGPSDSTGSN P9Q (APRITFGGQSDSTGSN)
- DMS PSSM value, P (position 9) (peptide APRITFGGPSDSTGSN): 0

Sequence: RNAPRITFGGPSDSTG F8H (RNAPRITHGGPSDSTG)
- DMS PSSM value, F (position 8) (peptide RNAPRITFGGPSDSTG): 0

Sequence: RNAPRITFGGPSDSTG P11I (RNAPRITFGGISDSTG)
- DMS PSSM value, P (position 11) (peptide RNAPRITFGGPSDSTG): 0

Sequence: APRITFGGPSDSTGSN G8S (APRITFGSPSDSTGSN)
- DMS PSSM value, G (position 8) (peptide APRITFGGPSDSTGSN): 0.005734
